# Target: T1, full-length beta-Catenin (Uniprot ID P35222) (Homo sapiens, UniProt P35222)
# T1 construct: 10 nM full-length beta-Catenin (Uniprot ID P35222)
# T1 sequence (P35222 1-781): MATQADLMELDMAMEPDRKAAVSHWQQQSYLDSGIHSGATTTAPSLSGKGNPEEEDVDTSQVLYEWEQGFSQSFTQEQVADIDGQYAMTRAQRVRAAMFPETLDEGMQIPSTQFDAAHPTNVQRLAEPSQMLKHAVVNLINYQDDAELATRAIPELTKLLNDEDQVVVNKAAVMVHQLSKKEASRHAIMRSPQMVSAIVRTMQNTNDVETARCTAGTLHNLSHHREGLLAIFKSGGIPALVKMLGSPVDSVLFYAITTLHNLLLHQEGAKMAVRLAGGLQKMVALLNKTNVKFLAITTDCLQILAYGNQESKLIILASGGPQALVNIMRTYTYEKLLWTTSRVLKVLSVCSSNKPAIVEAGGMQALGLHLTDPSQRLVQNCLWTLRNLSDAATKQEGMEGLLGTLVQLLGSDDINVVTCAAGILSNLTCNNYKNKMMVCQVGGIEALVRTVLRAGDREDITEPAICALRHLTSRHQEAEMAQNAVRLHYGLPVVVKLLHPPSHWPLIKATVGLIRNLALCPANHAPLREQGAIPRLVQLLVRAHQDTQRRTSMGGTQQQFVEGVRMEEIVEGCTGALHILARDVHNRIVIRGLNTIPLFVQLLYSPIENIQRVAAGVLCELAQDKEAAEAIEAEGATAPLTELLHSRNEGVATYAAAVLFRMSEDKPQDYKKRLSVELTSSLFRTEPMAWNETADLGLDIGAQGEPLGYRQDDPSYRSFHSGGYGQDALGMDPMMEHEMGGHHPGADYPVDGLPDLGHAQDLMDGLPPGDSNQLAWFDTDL
# Experiment: Fluorescence polarization IC50 (beta-catenin / 5FAM-TCF4 10-53 competition)
# Type: binding
# Conditions: beta-Catenin FP IC50 (nM), fluorescence polarization
row,SMILES,IC50
1,"CC(C)C[C@@H]1NC(=O)[C@H](Cc2ccccc2)NC(=O)[C@H](C)NC(=O)[C@H](C)NC(=O)[C@H](Cc2cccc(C(=O)O)c2)NC(=O)[C@H](CC(=O)O)NC(=O)C2(CCCC=CCCCOC(=O)N3CC[C@@](C(=O)N[C@@H](Cc4ccccc4Cl)C(=O)N[C@@H](Cc4csc5ccccc45)C(=O)N[C@@H](C)C(N)=O)(C3)NC1=O)CCCC=CC[C@]1(CCCN1C(=O)CCl)C(=O)N[C@@H](CC(=O)O)C(=O)N[C@@H](CC(C)(C)C)C(=O)N2 (stereo partly drawn) [I-2253, ClAc-PL3-Asp-Npg-B5-Asp-3COOHF-Ala-Ala-Phe-Leu-PyrS2-2C1F-BztA-Ala-NH2]",189 nM
2,CC(=O)N1CCC[C@]12CC=CCCCC1(CCCC=CCCCOC(=O)N3CC[C@@](C(=O)N[C@@H](Cc4ccsc4)C(=O)N[C@@H](Cc4csc5ccccc45)C(=O)N[C@@H](CC(N)=O)C(=O)N[C@@H](C)C(=O)N[C@@H](C)C(=O)N[C@@H](C)C(=O)N[C@@H](C)C(=O)N[C@@H](C)C(=O)N[C@@H](C)C(=O)N[C@@H](C)C(=O)N[C@@H](C)C(=O)N[C@@H](C)C(N)=O)(C3)NC(=O)[C@H](CC(C)C)NC(=O)[C@H](Cc3ccccc3)NC(=O)[C@H](C)NC(=O)[C@H](C)NC(=O)[C@H](Cc3cccc(C(=O)O)c3)NC(=O)[C@H](CC(=O)O)NC1=O)NC(=O)[C@H](CC(C)(C)C)NC(=O)[C@H](CC(=O)O)NC2=O (some centres unmarked) [I-2270],40 nM
3,"C[C@@H]1NC(=O)[C@H](C)NC(=O)[C@H](CC(=O)O)NC(=O)[C@H](CC(=O)O)NC(=O)C2(CCCC=CCCCOC(=O)N3CC[C@@](C(=O)N[C@@H](Cc4ccsc4)C(=O)N[C@@H](Cc4csc5ccccc45)C(=O)N[C@@H](Cc4c[nH]cn4)C(N)=O)(C3)NC(=O)[C@H](CCC(N)=O)NC(=O)[C@H](Cc3ccccc3)NC1=O)CCCC=CC[C@]1(CCCN1C(=O)CBr)C(=O)N[C@@H](CC(=O)O)C(=O)N[C@@H](CC(C)(C)C)C(=O)N2 (stereo partly drawn) [I-2285, BrAc-PL3-Asp-Npg-B5-Asp-Asp-Ala-Ala-Phe-Gln-PyrS2-3Thi-BztA-His-NH2]",94 nM
4,"CC(C)C[C@@H]1NC(=O)[C@H](Cc2ccccc2)NC(=O)[C@H](C)NC(=O)[C@H](C)NC(=O)[C@H](Cc2cccc(C(=O)O)c2)NC(=O)[C@H](CC(=O)O)NC(=O)C2(CCCC=CCCCOC(=O)N3CC[C@@](C(=O)N[C@@H](Cc4ccccc4Cl)C(=O)N[C@@H](Cc4csc5ccccc45)C(=O)N[C@@H](C)C(N)=O)(C3)NC1=O)CCCC=CC[C@]1(CCCN1C(=O)CBr)C(=O)N[C@@H](CC(=O)O)C(=O)N[C@@H](CC(C)(C)C)C(=O)N2 (stereo partly drawn) [I-2286, BrAc-PL3-Asp-Npg-B5-Asp-3COOHF-Ala-Ala-Phe-Leu-PyrS2-2C1F-BztA-Ala-NH2]",88 nM

# Same assay, conditions: fluorescence polarization; read-out: beta-Catenin FP IC50
row,SMILES,IC50
1,"CC(=O)N1CCC[C@]12CC=CCCCC1(CCCC=CCCCOC(=O)N3CC[C@@](C(=O)N[C@@H](Cc4cccc(-c5ccccc5)c4)C(=O)N[C@@H](Cc4ccsc4)C(=O)N[C@@H](CCC(N)=O)C(N)=O)(C3)NC(=O)[C@H](CC(C)C)NC(=O)[C@H](Cc3ccccc3)NC(=O)[C@H](C)NC(=O)[C@H](C)NC(=O)[C@H](Cc3cccc(C(=O)O)c3)NC(=O)[C@H](CC(=O)O)NC1=O)NC(=O)[C@H](CC(C)(C)C)NC(=O)[C@H](CC(=O)O)NC2=O (stereo partly drawn) [I-2254, Ac-PL3-Asp-Npg-B5-Asp-3COOHF-Ala-Ala-Phe-Leu-PyrS2-[Ph]3SF-3Thi-Gln-NH2]",5790 nM
2,"CC(=O)N1CCC[C@]12CC=CCCCC1(CCCC=CCCCOC(=O)N3CC[C@@](C(=O)N[C@@H](Cc4cccc(-c5ccccc5)c4)C(=O)N[C@@H](CC4CCC4)C(=O)N[C@@H](CCC(N)=O)C(N)=O)(C3)NC(=O)[C@H](CC(C)C)NC(=O)[C@H](Cc3ccccc3)NC(=O)[C@H](C)NC(=O)[C@H](C)NC(=O)[C@H](Cc3cccc(C(=O)O)c3)NC(=O)[C@H](CC(=O)O)NC1=O)NC(=O)[C@H](CC(C)(C)C)NC(=O)[C@H](CC(=O)O)NC2=O (stereo partly drawn) [I-2255, Ac-PL3-Asp-Npg-B5-Asp-3COOHF-Ala-Ala-Phe-Leu-PyrS2-[Ph]3SF-Cba-Gln-NH2]",7650 nM
3,"CC(=O)N1CCC[C@]12CC=CCCCC1(CCCC=CCCCOC(=O)N3CC[C@@](C(=O)N[C@@H](Cc4cccc(-c5ccccc5)c4)C(=O)N[C@@H](Cc4ccccc4C(F)(F)F)C(=O)N[C@@H](CCC(N)=O)C(N)=O)(C3)NC(=O)[C@H](CC(C)C)NC(=O)[C@H](Cc3ccccc3)NC(=O)[C@H](C)NC(=O)[C@H](C)NC(=O)[C@H](Cc3cccc(C(=O)O)c3)NC(=O)[C@H](CC(=O)O)NC1=O)NC(=O)[C@H](CC(C)(C)C)NC(=O)[C@H](CC(=O)O)NC2=O (stereo partly drawn) [I-2256, Ac-PL3-Asp-Npg-B5-Asp-3COOHF-Ala-Ala-Phe-Leu-PyrS2-[Ph]3SF-2F3MeF-Gln-NH2]",8410 nM
4,"CC(=O)N1CCC[C@]12CC=CCCCC1(CCCC=CCCCOC(=O)N3CC[C@@](C(=O)N[C@@H](Cc4ccsc4)C(=O)N[C@@H](Cc4csc5ccccc45)C(=O)N[C@@H](C)C(N)=O)(C3)NC(=O)[C@H](CC(C)C)NC(=O)[C@H](Cc3ccccc3)NC(=O)[C@H](C)NC(=O)[C@H](C)NC(=O)[C@H](Cc3cccc(C(=O)O)c3)NC(=O)[C@H](CC(=O)O)NC1=O)NC(=O)[C@H](CC(C)(C)C)NC(=O)[C@H]([C@@H](O)C(=O)O)NC2=O (stereo partly drawn) [I-2258, Ac-PL3-RbOHAsp-Npg-B5-Asp-3COOHF-Ala-Ala-Phe-Leu-PyrS2-3Thi-BztA-Ala-NH2]",272 nM
5,"CC(=O)N1CC2CC1C(=O)N[C@@H](CC(=O)O)C(=O)N[C@@H](CC(C)(C)C)C(=O)NC1(CCCC=CCCCOC(=O)N3CC[C@@](C(=O)N[C@@H](Cc4ccsc4)C(=O)N[C@@H](Cc4csc5ccccc45)C(=O)N[C@@H](CCC(N)=O)C(N)=O)(C3)NC(=O)[C@H](CC(C)C)NC(=O)[C@H](Cc3ccccc3)NC(=O)[C@H](C)NC(=O)[C@H](C)NC(=O)[C@H](CN(CC(=O)O)CC(F)(F)F)NC(=O)[C@H](CC(=O)O)NC1=O)CCCC=CCCC(=O)O2 (stereo partly drawn) [I-2264, Ac-HypEs5-Asp-Npg-B5-Asp-TfeGA-Ala-Ala-Phe-Leu-PyrS2-3Thi-BztA-Gln-NH2]",45 nM
6,"CC(C)C[C@@H]1NC(=O)[C@H](Cc2ccccc2)NC(=O)[C@H](C)NC(=O)[C@H](C)NC(=O)[C@H](CN(CC(=O)O)CC(F)(F)F)NC(=O)[C@H](CC(=O)O)NC(=O)C2(CCCC=CCCCOC(=O)N3CC[C@@](C(=O)N[C@@H](Cc4ccsc4)C(=O)N[C@@H](Cc4csc5ccccc45)C(=O)N[C@@H](CCC(N)=O)C(N)=O)(C3)NC1=O)CCCC=CCS(=O)(=O)N1CCC[C@@H]1C(=O)N[C@@H](CC(=O)O)C(=O)N[C@@H](CC(C)(C)C)C(=O)N2 (stereo partly drawn) [I-2266, ProSAm3-Asp-Npg-B5-Asp-TfeGA-Ala-Ala-Phe-Leu-PyrS2-3Thi-BztA-Gln-NH2]",266 nM
7,"CC(C)C[C@@H]1NC(=O)[C@H](Cc2ccccc2)NC(=O)[C@H](C)NC(=O)[C@H](C)NC(=O)[C@H](CN(CC(=O)O)CC(F)(F)F)NC(=O)[C@H](CC(=O)O)NC(=O)C2(CCCCCCCCOC(=O)N3CC[C@@](C(=O)N[C@@H](Cc4ccsc4)C(=O)N[C@@H](Cc4csc5ccccc45)C(=O)N[C@@H](CCC(N)=O)C(N)=O)(C3)NC1=O)CCCCCCS(=O)(=O)N1CCC[C@@H]1C(=O)N[C@@H](CC(=O)O)C(=O)N[C@@H](CC(C)(C)C)C(=O)N2 (stereo partly drawn) [I-2267, ProSAm3-Asp-Npg-B5-Asp-TfeGA-Ala-Ala-Phe-Leu-PyrS2-3Thi-BztA-Gln-NH2]",499 nM
8,"CCCCOC(=O)N1CCC[C@]12CC=CCCCC1(CCCC=CCCCOC(=O)N3CC[C@@](C(=O)N[C@@H](Cc4ccccc4Cl)C(=O)N[C@@H](Cc4csc5ccccc45)C(=O)N[C@@H](C)C(N)=O)(C3)NC(=O)[C@H](CC(C)C)NC(=O)[C@H](Cc3ccccc3)NC(=O)[C@H](C)NC(=O)[C@H](C)NC(=O)[C@H](Cc3cccc(C(=O)O)c3)NC(=O)[C@H](CC(=O)O)NC1=O)NC(=O)[C@H](CC(C)(C)C)NC(=O)[C@H](CC(=O)O)NC2=O (stereo partly drawn) [I-2304, CO2Bu-PL3-Asp-Npg-B5-Asp-3COOHF-Ala-Ala-Phe-Leu-PyrS2-2C1F-BztA-Ala-NH2]",511 nM
9,"COC(=O)N1CCC[C@]12CC=CCCCC1(CCCC=CCCCOC(=O)N3CC[C@@](C(=O)N[C@@H](Cc4ccccc4Cl)C(=O)N[C@@H](Cc4csc5ccccc45)C(=O)N[C@@H](C)C(N)=O)(C3)NC(=O)[C@H](CC(C)C)NC(=O)[C@H](Cc3ccccc3)NC(=O)[C@H](C)NC(=O)[C@H](C)NC(=O)[C@H](Cc3cccc(C(=O)O)c3)NC(=O)[C@H](CC(=O)O)NC1=O)NC(=O)[C@H](CC(C)(C)C)NC(=O)[C@H](CC(=O)O)NC2=O (stereo partly drawn) [I-2324, CO2Me-PL3-Asp-Npg-B5-Asp-3COOHF-Ala-Ala-Phe-Leu-PyrS2-2C1F-BztA-Ala-NH2]",83 nM
10,"CC(C)C[C@@H]1NC(=O)[C@H](Cc2ccccc2)NC(=O)[C@H](C)NC(=O)[C@H](C)NC(=O)[C@H](Cc2cccc(C(=O)O)c2)NC(=O)[C@H](CC(=O)O)NC(=O)C2(CCCC=CCCCOC(=O)N3CC[C@@](C(=O)N[C@@H](Cc4ccccc4Cl)C(=O)N[C@@H](Cc4csc5ccccc45)C(=O)N[C@@H](C)C(N)=O)(C3)NC1=O)CCCC=CC[C@]1(CCCN1C(=O)OC1CCCCC1)C(=O)N[C@@H](CC(=O)O)C(=O)N[C@@H](CC(C)(C)C)C(=O)N2 (stereo partly drawn) [I-2325, CO2Hex-PL3-Asp-Npg-B5-Asp-3COOHF-Ala-Ala-Phe-Leu-PyrS2-2C1F-BztA-Ala-NH2]",1350 nM
